Experimental findings from PubChem BioAssay (NCI) are described below.

Holding throughout (assay): growth of human tumour cells (NCI), 48 h
For assay [1], the system named is HCC-2998 colon.
Assay [2] concerns SF-539 CNS.
Assay [3] relates to OVCAR-4 ovarian.
The test system of assay [4] is TK-10 renal.
The subject of assay [5] is UO-31 renal.
Assay [6] concerns LOX IMVI melanoma.
Assay [7] deals with SNB-19 CNS.
The subject of assay [8] is PC-3 prostate.
In assay [9] the test system is NCI-H23 lung.
The subject of assay [10] is SK-OV-3 ovarian.
Assay [11] concerns A549 NSCLC.
In assay [12] the test system is KM12 colon.
Assay [13] deals with SF-295 CNS.
Assay [14] concerns CAKI-1 renal.
Assay [15] concerns EKVX NSCLC.
Assay [16] concerns MOLT-4 leukemia.
For assay [17], the system named is HCT-15 colon.
In assay [18] the test system is OVCAR-8 ovarian.
Assay [19] has as its system T-47D breast.
For assay [20], the system named is OVCAR-3 ovarian.

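Grown in 96-well plates, cells were treated for 48 hours with each compound at five concentrations. Insufficient inhibition: endpoint recorded as highest concentration tested. At the TGI there is no net growth.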

For `Cc1ccc(C(=O)c2[nH]c(Nc3ccc(Cl)cc3)c(C(=S)Nc3ccccc3)c2N)cc1`, the TGI is 5.31 µM in [1]; 17.7 µM in assay [2]; 4.32 µM in assay [3]; 16.8 µM in assay [4]; 23 µM in assay [5]; 14.3 µM in assay [6]. Further, the TGI in assay [7] is 21.9 µM; in assay [8], 23.3 µM; in assay [9], 9.1 µM; in assay [10], 27.3 µM; in [11], 5.29 µM; in [12] it was 18.8 µM. In addition, the TGI in [13] came to 5.27 µM; in [14], 30.6 µM; in [15] it was 19 µM; in [16], 32.6 µM; in assay [17], 28.5 µM; in [18] it was 18.1 µM. Moreover, the TGI in assay [19] was more than 100 µM; in [20], 56.8 µM.

In the case of `Cc1ccc(Nc2cc(=O)[nH]c(=O)[nH]2)cc1CS`, the TGI in assay [1], in [2], in assay [3], in assay [4], in [5] and in assay [6] was more than 100 µM each time. For the same compound, the TGI in assay [7], in [8], in assay [9], in [10], in assay [11] and in [12] was more than 100 µM throughout. Also, the TGI in assay [13], in assay [14], in assay [15], in assay [16], in assay [17] and in [18] was more than 100 µM each time. The TGI in assay [19] and in [20] was more than 100 µM in each case.

As for `CC(=O)O[C@H]1CC[C@@]2(C)C(=CC[C@H]3[C@@H]4C/C(=C\c5ccncc5)[C@H](OC(C)=O)[C@@]4(C)CC[C@@H]32)C1`, the TGI in assay [1] is 26.3 µM; in assay [2], 15.6 µM; in assay [3] it was 18.2 µM; in [4], 47.9 µM; in assay [5] it was 20.7 µM; in assay [6], 13.3 µM. For the same compound, the TGI in assay [7] worked out at 22.2 µM; in [8], 46.8 µM; in assay [9] it was 19.3 µM; in assay [10] it was 44.1 µM; in [11] it was 29.8 µM; in assay [12], 16.3 µM. Also, the TGI in assay [13] was 19.5 µM; in assay [14], 25.7 µM; in [15], 36.3 µM; in [16] it was 13.9 µM; in [17] it was 15.6 µM; in [18], 34.5 µM. Moreover, the TGI in assay [19] is 38.5 µM; in assay [20] it was 23.4 µM.

For `Nc1ccc(-c2nc3ccccc3s2)cc1I`, the TGI in [1], in [2], in [3], in [4], in [5] and in assay [6] was more than 100 µM each time. Also, the TGI in assay [7], in [8], in assay [9], in assay [10], in assay [11] and in assay [12] was more than 100 µM in each case. Moreover, the TGI in assay [13] is more than 100 µM; in assay [14], more than 100 µM; in assay [15] it was more than 100 µM; in assay [16], more than 46.4 µM; in assay [17], more than 100 µM; in assay [18] it was more than 100 µM. The TGI in assay [19] and in assay [20] was more than 100 µM in each case.

In the case of `O=C1c2ccccc2-n2c1nc1cc(Cl)ccc1c2=O`, the TGI is more than 100 µM in assay [1]; more than 100 µM in assay [2]; more than 100 µM in assay [3]; more than 100 µM in assay [4]; more than 100 µM in assay [5]; 76.2 µM in assay [6]. The TGI in assay [7], in [8], in assay [9], in assay [10], in assay [11] and in assay [12] was more than 100 µM throughout. Further, the TGI in assay [13], in assay [14], in assay [15], in assay [16], in [17] and in [18] was more than 100 µM throughout. Further, the TGI in assay [19] is 48.8 µM; in assay [20] it was more than 100 µM.

On to `O=c1[nH]cnc2c1ncn2C1SC(CO)C(O)C1O` (stereo not given), for which the TGI in [1], in assay [2], in assay [3], in assay [4], in assay [5] and in assay [6] was more than 100 µM throughout. Besides, the TGI in [7], in assay [8], in [9], in assay [10], in assay [11] and in assay [12] was more than 100 µM each time. The TGI in [13], in [14], in [15], in assay [16], in [17] and in [18] was more than 100 µM each time. Besides, the TGI in assay [19] and in assay [20] was more than 100 µM each time.

In the case of `Cc1ccc(S(=O)(=O)c2ccsc2NC(=O)c2ccccc2)cc1`, the TGI in [1] is more than 100 µM; in assay [2], more than 100 µM; in [3], 73.6 µM; in assay [4], more than 100 µM; in [5], more than 100 µM; in [6], more than 100 µM. Moreover, the TGI is more than 100 µM in [7]; more than 100 µM in assay [8]; more than 31.6 µM in [9]; more than 100 µM in assay [10]; more than 100 µM in assay [11]; more than 100 µM in assay [12]. The TGI was more than 100 µM in assay [13]; 97.4 µM in [14]; more than 100 µM in [15]; more than 100 µM in [16]; more than 100 µM in assay [17]; 98.5 µM in assay [18]. For the same compound, the TGI in assay [19] and in assay [20] was more than 100 µM in each case.
